# Source: patent US20220111013A1, “COMPOUND DECREASING THE CONCENTRATION OF 2-HYDROXY-GLUTARATE” (Universität Heidelberg, priority 2019, published 2022)
# “Also recorded” adds a separate entry of the source. Positions of bridges follow the written chain, without caps; N, C: chain ends. No end group written: not given here.
# What was measured:
# L2HGDH = experiment: Gene expression analysis of L2HGDH in Ang-II infusion mice model; format: in vivo; settings: Ang-II infusion mice vs controls
# Protocol: (§1) RNA was extracted and purified from frozen mouse heart using Trizol reagent (QIAzol lysis reagent, Qiagen) following manufacturer's instructions, followed by DnaseI digestion. Nucleic acid yields were analyzed photometrically (NanoDrop ND-1000, Spectrophotometer). 1.5 μg RNA was reverse transcribed into cDNA using Superscript III Kit (Invitrogen) and oligo(dT) Primers. cDNA synthesis was followed by RNA digestion using RNase H. qRT-PCR was executed using iTaq Universal SYBR Green Supermix (Thermo Fisher Scientific) and CFX96 Touch Real-Time PCR detection system (Bio Rad) as previously described (Doehner 2014). The following primers used for cDNA relative quantification are listed below.
# [1] = test system: primary neonatal rat ventricular cardiomyocytes (NRVCMs); experiment: Measurement of mitochondrial ROS production with MitoSOX in NRVCM; format: cell-based; settings: ET-1 stimulation 200 μmol/l for 24 hours, compared to control
# Protocol: NRVCMs were isolated and prepared as published previously (Rangrez et al. 2013). Briefly, left ventricles from 1-2 days old Wistar rats (Charles River) were harvested and cut in pH 7.4 buffer containing 120 mmol/liter NaCl, 20 mmol/liter Hepes, 8 mmol/liter NaH2PO4, 6 mmol/liter glucose, 5 mmol/liter KCl, and 0.8 mmol/liter MgSO4. The separation of single cardiomyocyte from cut tissue mass, was achieved by enzymatic digestion with 0.6 mg/ml pancreatin (Sigma) at 37° C. and 0.5 mg/ml collagenase type 11 (Worthington). Cell suspension was filtered by a cell strainer. Newborn calf serum was added to stop enzymatic digestion. In order to separate cardiomyocytes from fibroblasts, a Percoll gradient (GE Healthcare) centrifugation step was performed. Afterwards, cardiomyocytes were cultured in DMEM medium containing 10% fetal calf serum (FCS), 2 mM penicillin/streptomycin, and L-glutamine (PAA Laboratories). […]
# MitoSOX was applied to culture medium to a final concentration of 0.5 μM and cells were incubated for 15 minutes at 37° C. […] The fluorescence (red) was detected (Ex: 400 nm, Em at 590 nm) using confocal microscopy (Zeiss LSM 800). Mean fluorescence intensity (MFI) was calculated from the total fluorescence intensity detected from viable cells and divided by the number of cells using the software generated by Image J software (NIH, Bethesda, Md., USA).
# NRVCMs [2] = experiment: 2HG induced cardiomyocyte hypertrophy in NRVCMs with AAV6 transduction; format: cell-based, rat; settings: L-2HG 2 mM, 2 days
# Protocol: as §1
# In additional experiments, NRVCMs were transduced with AAV6 vectors, either overexpressing L2HGDH or luciferase (Luc) as control at the M01=10^5 vp/cell. Three days after transduction L-2HG (Sigma-Aldrich) was applied to cell culture medium to a final concentration of 2 mM. Cells were harvested 2 days after treatment.
# Cardiomyocytes were fixed with 4% PFA and blocked in 2.5% BSA in PBS including 0.1% Triton. Next NRVCMs were incubated with monoclonal mouse anti-α-actinin (1:200 in 2.5% BSA in PBS; Sigma) antibody for 1 hour at room temperature. After washing with PBS, secondary antibody conjugated to Alexa Fluor-546 (Thermo Fisher Scientific) together with nuclear stain DAPI (Sigma-Aldrich) at a dilution of 1:200 or 1:1000 respectively in 2.5% BSA in PBS were applied and incubated for 1 h. Afterwards, coverslips were mounted using FluorPreserve reagent (Merck Millipore). Florescence graphs were collected with Keyence fluorescence microscope BZ-9000 at ×10 magnification (objective: CFI Plan Apochromat λ×10; Nikon) and BZ-II viewer software (Keyence, version 2.1). 10 pictures were taken from each coverslip. BZ-II Analyzer (version 2.1) were used to process and analyze the graphs. HybridCellCount module and fluorescence intensity singe-extraction mode were applied for cell size measurement.
# NRVCMs [3] = experiment: Mitochondrial membrane potential (TMRE) in NRVCMs; format: cell-based, rat; settings: L-2HG treatment, live cell monitoring
# Protocol: In additional experiments, […] were transduced with AAV6 vectors, either overexpressing L2HGDH or luciferase (Luc) as control at the M01=10^5 vp/cell. Three days after transduction L-2HG (Sigma-Aldrich) was applied to cell culture medium to a final concentration of 2 mM. Cells were harvested 2 days after treatment. […] were maintained in μ-Slide 8-wells, (Ibidi), suitable for live cell imaging. Cells were incubated with tetramethylrhodamine (TMRE) at 37° C. to a concentration of 50 nmol/L for 30 min. Afterwards, cells were washed with warm PBS and media was replaced with FluoroBrite DMEM (Thermo Fischer Scientific). Cells were imaged within 30 min (Ex: 549; Em: 574 nm).
# NRVCMs [4] = experiment: Mitochondrial membrane potential (JC-1) in NRVCMs; format: cell-based, rat; settings: 2HG treatment
# Protocol: In additional experiments, […] were transduced with AAV6 vectors, either overexpressing L2HGDH or luciferase (Luc) as control at the M01=10^5 vp/cell. Three days after transduction L-2HG (Sigma-Aldrich) was applied to cell culture medium to a final concentration of 2 mM. Cells were harvested 2 days after treatment. Similarly, JC-1 was applied to cell culture medium to a concentration of 1 μmol/L and cells were incubated at 37° C. for 30 min. After washing with warm PBS, cells were imaged in FluoroBrite DMEM (J-monomers Ex:485; Em:535/J-aggregates Ex: 530; Em:590) using a confocal microscope (LSM800, Zeiss). Mean fluorescence intensity was analysed using ImageJ.
# NRVCMs [5] = experiment: Pro-hypertrophic effects of 2-HG on NRVCMs (cell size, ANP and BNP mRNA); format: cell-based, rat; settings: 2 days
# Protocol: as §1
# NRVCMs were isolated and prepared as published previously (Rangrez et al. 2013). […]
# Cardiomyocytes were fixed with 4% PFA and blocked in 2.5% BSA in PBS including 0.1% Triton. […] Florescence graphs were collected with Keyence fluorescence microscope BZ-9000 at ×10 magnification (objective: CFI Plan Apochromat λ×10; Nikon) and BZ-II viewer software (Keyence, version 2.1). […] HybridCellCount module and fluorescence intensity singe-extraction mode were applied for cell size measurement.
# Tet2 = biological target: T1, Tet2 (Rattus norvegicus, UniProt A0ABK0LWH5); experiment: Assessment of hydroxymethylation status of cytosine (5mC-Hydroxylase TET activity kit) after 2-HG treatment; format: cell-based; settings: nuclear extracts of NRVCMs after 2-HG treatment
# T1 construct: nuclear extracts isolated from NRVCMs; endogenous in cells; host or cells: primary neonatal rat ventricular cardiomyocytes (NRVCMs), nuclear extract
# T1 sequence (A0ABK0LWH5 1-1959): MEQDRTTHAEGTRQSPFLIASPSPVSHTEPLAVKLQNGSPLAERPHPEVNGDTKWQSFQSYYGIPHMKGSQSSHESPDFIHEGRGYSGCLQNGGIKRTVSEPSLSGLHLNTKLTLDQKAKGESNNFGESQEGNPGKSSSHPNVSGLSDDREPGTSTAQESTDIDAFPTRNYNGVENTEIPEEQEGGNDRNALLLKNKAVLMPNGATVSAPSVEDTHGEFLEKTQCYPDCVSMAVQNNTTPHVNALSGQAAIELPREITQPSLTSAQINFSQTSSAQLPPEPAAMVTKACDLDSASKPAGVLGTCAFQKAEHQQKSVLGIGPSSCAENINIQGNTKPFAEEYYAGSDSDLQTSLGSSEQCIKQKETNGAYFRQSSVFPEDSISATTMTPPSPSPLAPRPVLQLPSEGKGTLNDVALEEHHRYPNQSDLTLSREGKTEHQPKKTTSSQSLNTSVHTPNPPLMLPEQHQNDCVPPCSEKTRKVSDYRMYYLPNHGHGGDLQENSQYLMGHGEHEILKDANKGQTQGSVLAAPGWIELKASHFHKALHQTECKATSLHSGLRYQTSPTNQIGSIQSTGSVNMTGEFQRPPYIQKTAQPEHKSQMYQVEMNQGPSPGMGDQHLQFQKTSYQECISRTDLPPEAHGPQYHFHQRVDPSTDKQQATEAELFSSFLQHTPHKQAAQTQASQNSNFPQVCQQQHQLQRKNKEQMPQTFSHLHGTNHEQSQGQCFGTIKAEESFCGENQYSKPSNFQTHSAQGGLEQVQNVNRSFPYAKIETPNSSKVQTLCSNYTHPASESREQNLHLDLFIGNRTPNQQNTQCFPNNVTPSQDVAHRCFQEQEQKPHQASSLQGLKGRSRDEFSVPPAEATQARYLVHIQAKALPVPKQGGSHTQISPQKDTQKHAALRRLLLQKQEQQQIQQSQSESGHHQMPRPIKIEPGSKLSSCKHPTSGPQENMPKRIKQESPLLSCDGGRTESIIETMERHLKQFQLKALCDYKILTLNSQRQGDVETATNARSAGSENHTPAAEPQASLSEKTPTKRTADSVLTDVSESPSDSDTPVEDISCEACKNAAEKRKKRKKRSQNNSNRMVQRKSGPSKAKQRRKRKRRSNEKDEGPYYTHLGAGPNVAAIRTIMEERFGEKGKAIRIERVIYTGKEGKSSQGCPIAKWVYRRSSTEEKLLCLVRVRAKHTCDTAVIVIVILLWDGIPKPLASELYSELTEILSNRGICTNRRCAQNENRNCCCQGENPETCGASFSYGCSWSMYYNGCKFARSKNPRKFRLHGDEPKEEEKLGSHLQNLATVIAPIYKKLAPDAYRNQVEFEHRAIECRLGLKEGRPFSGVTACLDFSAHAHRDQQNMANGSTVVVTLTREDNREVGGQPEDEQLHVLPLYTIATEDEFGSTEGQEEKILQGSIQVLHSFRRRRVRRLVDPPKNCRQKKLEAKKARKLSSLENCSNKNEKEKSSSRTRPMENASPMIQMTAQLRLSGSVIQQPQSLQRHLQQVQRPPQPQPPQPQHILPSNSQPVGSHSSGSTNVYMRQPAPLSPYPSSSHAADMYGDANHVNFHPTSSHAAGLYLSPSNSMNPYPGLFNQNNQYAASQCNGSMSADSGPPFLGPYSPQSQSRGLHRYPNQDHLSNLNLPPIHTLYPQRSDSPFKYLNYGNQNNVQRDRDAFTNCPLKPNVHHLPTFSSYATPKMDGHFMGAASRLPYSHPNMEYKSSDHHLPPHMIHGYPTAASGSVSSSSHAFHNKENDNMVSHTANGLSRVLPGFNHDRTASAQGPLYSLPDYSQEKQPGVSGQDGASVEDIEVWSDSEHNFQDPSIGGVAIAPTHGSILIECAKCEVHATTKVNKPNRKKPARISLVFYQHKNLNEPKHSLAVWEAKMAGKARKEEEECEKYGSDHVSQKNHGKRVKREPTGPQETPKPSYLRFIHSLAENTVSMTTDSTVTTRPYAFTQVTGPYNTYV
# Protocol: Epigenase 5mC-Hydroxylase TET Activity/Inhibition Assay Kit was employed to analyse Tet2 activity in nuclear extracts isolated from NRVCMs after 2-HG treatment. Cell fractionation was performed according to standard REAP protocol (Suzuki et al. 2010). The measurement of hydroxymethylcytosine (hmC) amount was performed according to manufacturer's instructions. 50 μg of nuclear protein was used per sample.
# [6] = test system: primary rat neonatal fibroblasts; experiment: L-2HG on fibroblast proliferation and collagen synthesis; format: cell-based; settings: disodium salt; for collagen3a1 expression: Western blot, non-treated fibroblasts as control; for fibroblast proliferation, Ki67-positive nuclei: immunocytochemistry
molecule,measurement,setting,value
"Ang-II: infused to give the Ang-II infusion mice model of cardiac hypertrophy (DRVYIHPF; Angiotensin-2; UniProt P01019 25-32, looked up)",down-regulation in L2HGDH mRNA level,L2HGDH,35%
"ET-1: hypertrophic stimulation applied to NRVCMs in serum-free medium (CSCSSLMDKECVYFCHLDIIW; disulfide 1-15, 3-11; ends not checked; UniProt P05305 53-73, looked up)",MitoSOX fluorescence level (ROS production),[1],significant increase
"O=C([O-])CC[C@H](O)C(=O)[O-].[Na+].[Na+] [2-HG, L-α-Hydroxyglutaric acid disodium salt]",cell size,NRVCMs [2],increased
same,mRNA levels of pro-hypertrophic markers,NRVCMs [2],increased
same,induction of hypertrophy in NRVCMs,NRVCMs [2]; disodium salt,marked induction; also recorded: pro-hypertrophic
same,TMRE fluorescence (mitochondrial membrane potential),NRVCMs [3],time-dependent decrease
same,JC-1 green/red mean fluorescence intensity (mitochondrial polarization),NRVCMs [4],mitochondrial depolarization
same,cell size,"NRVCMs [5]; 2-HG 2 mM in serum-free medium, vs non-treated cells",dramatic increase
same,"fetal gene program, ANP and BNP mRNA",NRVCMs [5]; 2-HG 2 mM,marked increase
same,epigenetic 5-hmC deposition,Tet2,increased
same,collagen3a1 expression,[6],induces
same,collagen3a1 expression,[6]; listed as L-2HG,significant increased
same,"fibroblast proliferation, Ki67-positive nuclei",[6],induces
same,"fibroblast proliferation, Ki67-positive nuclei",[6]; listed as L-2HG,dramatic increased
